Results published in patent publication US9227971B2, “Pyrazolo[1,5-a]pyrimidine compounds as mTOR inhibitors” (Merck Sharp & Dohme Corp., priority 2010, dated 2016).

Columns and labels:
[1] = tested on: phosphorylated 4E-BP1 Thr37/46 (p4E-BP1 Thr37/46), mTORC1 activity, PC3 cells; assay: mTOR target engagement assay, immunofluorescent cell-based, p4E-BP1 Thr37/46 readout (mTORC1 activity); details: Homo sapiens, PC-3, Table 3-1; PC3 cells; read-out: p4E-BP1 Thr37/46 IC50
How it was run: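 Cell-based immunofluorescence in PC3 cells: serially diluted compounds (0.25% DMSO, 5% FBS) applied for ninety minutes at 37° C before fixation and overnight 4° C staining of p4E-BP1 Thr37/46. Untreated DMSO wells set maximal phosphorylation; IC50 obtained by logistic fitting.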

[2] = tested on: phosphorylated AKT Ser473 (pAKT S473), mTORC2 activity, PC3 cells; assay: mTOR target engagement assay, immunofluorescent cell-based, pAKT S473 readout (mTORC2 activity); details: Homo sapiens, PC-3, Table 3-1; PC3 cells
How it was run: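 After blocking, cells were stained overnight at 4 °C with anti-pAKT S473 antibody, then a fluorescent secondary; inhibition was read as reduced fluorescence intensity.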

SMILES | IC50 [1] | IC50 [2]
CS(=O)(=O)c1c([C@@H]2C[C@H]3CC[C@@H](C2)N3C(=O)c2cccc(=O)[nH]2)nc2c(-c3ccc(-c4ccccc4)nc3)cnn2c1N [Compound 3.140, 6-((1R,3s,5S)-3-(7-amino-6-(methylsulfonyl)-3-(6-phenylpyridin-3-yl)pyrazolo[1,5-a]pyrimidin-5-yl)-8-azabicyclo[3.2.1]octane-8-carbonyl)pyridin-2(1H)-one] | 100 to 1000 nM | 1 to 100 nM
CS(=O)(=O)c1c([C@@H]2C[C@H]3CC[C@@H](C2)N3C(=O)[C@@H]2COC(=O)N2)nc2c(-c3ccc(-c4ccccc4)nc3)cnn2c1N [Compound 3.141, (S)-4-((1R,3R,5S)-3-(7-amino-6-(methylsulfonyl)-3-(6-phenylpyridin-3-yl)pyrazolo[1,5-a]pyrimidin-5-yl)-8-azabicyclo[3.2.1]octane-8-carbonyl)oxazolidin-2-one] | 1000 to 10000 nM | 1000 to 10000 nM
CS(=O)(=O)c1c([C@@H]2C[C@H]3CC[C@@H](C2)N3C(=O)[C@H]2COC(=O)N2)nc2c(-c3ccc(-c4ccccc4)nc3)cnn2c1N [Compound 3.142, (R)-4-((1R,3S,5S)-3-(7-amino-6-(methylsulfonyl)-3-(6-phenylpyridin-3-yl)pyrazolo[1,5-a]pyrimidin-5-yl)-8-azabicyclo[3.2.1]octane-8-carbonyl)oxazolidin-2-one] | 100 to 1000 nM | 100 to 1000 nM
CS(=O)(=O)c1c([C@@H]2C[C@H]3CC[C@@H](C2)N3C(=O)c2ccnc(N)n2)nc2c(-c3ccc(-c4ccccc4)nc3)cnn2c1N [Compound 3.143, ((1R,3s,5S)-3-(7-amino-6-(methylsulfonyl)-3-(6-phenylpyridin-3-yl)pyrazolo[1,5-a]pyrimidin-5-yl)-8-azabicyclo[3.2.1]octan-8-yl)(2-aminopyrimidin-4-yl)methanone] | 100 to 1000 nM | 100 to 1000 nM
COc1ccc(-c2ncc(-c3cnn4c(N)c(S(C)(=O)=O)c([C@@H]5C[C@H]6CC[C@@H](C5)N6C(=O)c5nnc[nH]5)nc34)cn2)cc1F [Compound 3.147, ((1R,3s,5S)-3-(7-amino-3-(2-(3-fluoro-4-methoxyphenyl)pyrimidin-5-yl)-6-(methylsulfonyl)pyrazolo[1,5-a]pyrimidin-5-yl)-8-azabicyclo[3.2.1]octan-8-yl)(4H-1,2,4-triazol-3-yl)methanone] | 1000 to 10000 nM | 1000 to 10000 nM
COc1ccc(-c2ncc(-c3cnn4c(N)c(S(C)(=O)=O)c([C@@H]5C[C@H]6CC[C@@H](C5)N6C(=O)c5nnc[nH]5)nc34)cn2)c(F)c1F [Compound 3.148, ((1R,3s,5S)-3-(7-amino-3-(2-(2,3-difluoro-4-methoxyphenyl)pyrimidin-5-yl)-6-(methylsulfonyl)pyrazolo[1,5-a]pyrimidin-5-yl)-8-azabicyclo[3.2.1]octan-8-yl)(4H-1,2,4-triazol-3-yl)methanone] | 100 to 1000 nM | 100 to 1000 nM
COc1ccc(-c2ncc(-c3cnn4c(N)c(S(C)(=O)=O)c([C@@H]5C[C@H]6CC[C@@H](C5)N6C(=O)CO)nc34)cn2)c(F)c1F [Compound 3.149, 1-((1R,3s,5S)-3-(7-amino-3-(2-(2,3-difluoro-4-methoxyphenyl)pyrimidin-5-yl)-6-(methylsulfonyl)pyrazolo[1,5-a]pyrimidin-5-yl)-8-azabicyclo[3.2.1]octan-8-yl)-2-hydroxyethanone] | 100 to 1000 nM | 1000 to 10000 nM
CS(=O)(=O)c1c([C@@H]2C[C@H]3CC[C@@H](C2)N3C(=O)c2nnc[nH]2)nc2c(-c3ccc(-n4cccn4)nc3)cnn2c1N [Compound 3.150, ((1R,3s,5S)-3-(3-(6-(1H-pyrazol-1-yl)pyridin-3-yl)-7-amino-6-(methylsulfonyl)pyrazolo[1,5-a]pyrimidin-5-yl)-8-azabicyclo[3.2.1]octan-8-yl)(4H-1,2,4-triazol-3-yl)methanone] | 1 to 100 nM | 1 to 100 nM
CC(C)(O)c1ncc(-c2cnn3c(N)c(S(C)(=O)=O)c([C@@H]4C[C@H]5CC[C@@H](C4)N5C(=O)c4nnc[nH]4)nc23)cn1 [Compound 3.152, ((1R,3s,5S)-3-(7-amino-3-(2-(2-hydroxypropan-2-yl)pyimidin-5-yl)-6-(methylsulfonyl)pyrazolo[1,5-a]pyrimidin-5-yl)-8-azabicyclo[3.2.1]octan-8-yl)(4H-1,2,4-triazol-3-yl)methanone] | 1000 to 10000 nM | 1000 to 10000 nM
CS(=O)(=O)c1c([C@@H]2C[C@H]3CC[C@@H](C2)N3C(=O)CO)nc2c(-c3ccc(-n4cccn4)nc3)cnn2c1N [Compound 3.153, 1-((1R,3s,5S)-3-(3-(6-(1H-pyrazol-1-yl)pyridin-3-yl)-7-amino-6-(methylsulfonyl)pyrazolo[1,5-a]pyrimidin-5-yl)-8-azabicyclo[3.2.1]octan-8-yl)-2-hydroxyethanone] | 1000 to 10000 nM | 100 to 1000 nM
CS(=O)(=O)c1c([C@@H]2C[C@H]3CC[C@@H](C2)N3C(=O)c2nnc[nH]2)nc2c(-c3ccc(C(N)=O)c(F)c3)cnn2c1N [Compound 3.155, 4-(5-((1R,3s,5S)-8-(4H-1,2,4-triazole-3-carbonyl)-8-azabicyclo[3.2.1]octan-3-yl)-7-amino-6-(methylsulfonyl)pyrazolo[1,5-a]pyrimidin-3-yl)-2-fluorobenzamide] | 1000 to 10000 nM | > 10000 nM
CS(=O)(=O)c1c([C@@H]2C[C@H]3CC[C@@H](C2)N3C(=O)CO)nc2c(-c3ccc(C(N)=O)c(F)c3)cnn2c1N [Compound 3.156, 4-(7-amino-5-((1R,3a,5S)-8-(2-hydroxyacetyl)-8-azabicyclo[3.2.1]octan-3-yl)-6-(methylsulfonyl)pyrazolo[1,5-a]pyrimidin-3-yl)-2-fluorobenzamide] | 1000 to 10000 nM | > 10000 nM
Cc1cc(-c2cnn3c(N)c(S(C)(=O)=O)c([C@@H]4C[C@H]5CC[C@@H](C4)N5C(=O)c4nnc[nH]4)nc23)cnc1C(C)(C)O [Compound 3.157, ((1R,3s,5S)-3-(7-amino-3-(6-(2-hydroxypropan-2-yl)-5-methylpyridin-3-yl)-6-(methylsulfonyl)pyrazolo[1,5-a]pyrimidin-5-yl)-8-azabicyclo[3.2.1]octan-8-yl)(4H-1,2,4-triazol-3-yl)methanone] | 1 to 100 nM | 1 to 100 nM
CC(C)(O)c1ncc(-c2cnn3c(N)c(S(C)(=O)=O)c([C@@H]4C[C@H]5CC[C@@H](C4)N5C(=O)c4nnc[nH]4)nc23)cc1Cl [Compound 3.158, ((1R,3s,5S)-3-(7-amino-3-(5-chloro-6-(2-hydroxypropan-2-yl)pyridin-3-yl)-6-(methylsulfonyl)pyrazolo[1,5-a]pyrimidin-5-yl)-8-azabicyclo[3.2.1]octan-8-yl)(4H-1,2,4-triazol-3-yl)methanone] | 1 to 100 nM | 1 to 100 nM
Nc1c(S(=O)(=O)C2CC2)c([C@@H]2C[C@H]3CC[C@@H](C2)N3C(=O)c2nnc[nH]2)nc2c(-c3ccc(-c4ccccc4)nc3)cnn12 [Compound 3.160, ((1R,3s,5S)-3-(7-amino-6-(cyclopropylsulfonyl)-3-(6-phenylpyridin-3-yl)pyrazolo[1,5-a]pyrimidin-5-yl)-8-azabicyclo[3.2.1]octan-8-yl)(4H-1,2,4-triazol-3-yl)methanone] | 100 to 1000 nM | 1 to 100 nM
CCS(=O)(=O)c1c([C@@H]2C[C@H]3CC[C@@H](C2)N3C(=O)c2nnc[nH]2)nc2c(-c3ccc(-c4ccccc4)nc3)cnn2c1N [Compound 3.161, ((1R,3s,5S)-3-(7-amino-6-(ethylsulfonyl)-3-(6-phenylpyridin-3-yl)pyrazolo[1,5-a]pyrimidin-5-yl)-8-azabicyclo[3.2.1]octan-8-yl)(4H-1,2,4-triazol-3-yl)methanone] | 1 to 100 nM | 1 to 100 nM
CCCS(=O)(=O)c1c([C@@H]2C[C@H]3CC[C@@H](C2)N3C(=O)c2nnc[nH]2)nc2c(-c3ccc(-c4ccccc4)nc3)cnn2c1N [Compound 3.162, ((1R,3s,5S)-3-(7-amino-3-(6-phenylpyridin-3-yl)-6-(propylsulfonyl)pyrazolo[1,5-a]pyrimidin-5-yl)-8-azabicyclo[3.2.1]octan-8-yl)(4H-1,2,4-triazol-3-yl)methanone] | 100 to 1000 nM | 100 to 1000 nM
CC(C)S(=O)(=O)c1c([C@@H]2C[C@H]3CC[C@@H](C2)N3C(=O)c2nnc[nH]2)nc2c(-c3ccc(-c4ccccc4)nc3)cnn2c1N [Compound 3.163, ((1R,3s,5S)-3-(7-amino-6-(isopropylsulfonyl)-3-(6-phenylpyridin-3-yl)pyrazolo[1,5-a]pyrimidin-5-yl)-8-azabicyclo[3.2.1]octan-8-yl)(4H-1,2,4-triazol-3-yl)methanone] | 100 to 1000 nM | 100 to 1000 nM
COc1ccc(-c2ccc(-c3cnn4c(N)c(S(C)(=O)=O)c([C@@H]5C[C@H]6CC[C@@H](C5)N6C(=O)c5nnc[nH]5)nc34)cn2)cn1 [Compound 3.164, ((1R,3s,5S)-3-(7-amino-3-(6′-methoxy-2,3′-bipyridin-5-yl)-6-(methylsulfonyl)pyrazolo[1,5-a]pyrimidin-5-yl)-8-azabicyclo[3.2.1]octan-8-yl)(4H-1,2,4-triazol-3-yl)methanone] | 100 to 1000 nM | 100 to 1000 nM
CS(=O)(=O)c1c([C@H]2CC3CC[C@H](C2)N3C(=O)c2nnc[nH]2)nc2c(-c3ccc(C4CCCCC4)nc3)cnn2c1N [Compound 3.165, ((1R,3s,5S)-3-(7-amino-3-(6-cyclohexylpyridin-3-yl)-6-(methylsulfonyl)pyrazolo[1,5-a]pyrimidin-5-yl)-8-azabicyclo[3.2.1]octan-8-yl)(4H-1,2,4-triazol-3-yl)methanone] | 100 to 1000 nM | 100 to 1000 nM
